Test results reported in paper PMC11413503, “SCR‐7952, a highly selective MAT2A inhibitor, demonstrates synergistic antitumor activities in combination with the S‐adenosylmethionine‐competitive or the methylthioadenosine‐cooperative protein arginine methyltransferase 5 inhibitors in methylthioadenosine phosphorylase‐deleted tumors” (MedComm, 2024).

Experiments:
AR = AR (Homo sapiens, UniProt P10275); experiment: Mini-profiling panel, nuclear hormone receptor; type: cell-based
Experimental: (§1) Further insight into selectivity was evaluated in a functional panel of 47 representative targets closely related to human life activities, including G protein‐coupled receptors, transporters, ion channels, kinases, nuclear hormone receptor targets, and nonkinase enzymes (Table S3).

[1] = Plasma pharmacokinetics after multiple administration in xenograft mice; type: in vivo; conditions: SCR-7952 1.0 mg/kg
MAT2A protein expression = experiment: Immunoblot of MAT2A protein expression; type: cell-based; conditions: 96 h, HCT116 MTAP−/− and WT cells
HCT116 MTAP−/− cells = experiment: Intracellular SAM inhibition assay; type: cell-based; conditions: Homo sapiens, HCT-116; HCT116 MTAP−/− cells, 6 h treatment; read-out: IC50, cellular SAM levels
Experimental: MAT2A inhibition in the cellular environment was monitored by measurement of the abundance of its product SAM in HCT116 MTAP ^−/− cells. HCT116 MTAP ^−/− cells were plated in 96‐well cell culture plates at 50,000 cells per well and allowed to attach overnight at 37°C in 5% CO2. Compounds were added in a dose–response format to generate a 10‐point dose–response curve. Doses were started at a 10 µM top concentration with 1:5 serial dilution. After 6 h of incubation, the medium was removed and cells were extracted with 50% methanol containing 1 M acetic acid for SAM metabolite measurement by UPLC‐MS/MS.
The standard SAM solution was prepared in a surrogate matrix of 50% methanol containing 1 M acetic acid with a concentration range of 3–1000 ng/mL. The quality control sample was prepared in the same surrogate matrix. SAM‐d 3 was used as the internal standard (IS). A Waters UPLC system coupled with a SCIEX Triple Quad™ 6500^+ mass spectrometer […] was used to analyze the samples. Samples were separated on an ACQUITY UPLC® BEH amide column (2.1 × 50 mm, 1.7 µm). The mobile phase consisted of 5% acetonitrile containing 5 mM NH4OAc and 1% (v/v) formic acid (A) and 95% acetonitrile containing 5 mM NH4OAc and 1% (v/v) formic acid (B). […] SAM and SAM‐d 3 were detected with multiple‐reaction monitoring of a mass transition pair at m/z 399.2/250.2 and […], respectively.

SDMA = experiment: Immunoblot of SDMA (PRMT5-dependent mark); type: cell-based; conditions: 96 h, HCT116 MTAP−/− cells
[2] = test system: KP4 (MTAP-deleted pancreatic cancer cell line); experiment: Combination proliferation assay; type: cell-based; conditions: KP4 cells, 8 days
Experimental: Cells were plated in 96‐well cell culture plates and allowed to attach overnight at 37°C in 5% CO2. […] The final concentration of DMSO was 0.1% in media. Cell proliferation was measured using CellTiter‐Glo Cell Viability Assay (Promega). The IC50 values were calculated using the GraphPad Prism 9. Drug combination effects were analyzed using Combenefit software.[45]

ADORA2A = ADORA2A (Homo sapiens, UniProt P29274); experiment: Mini-profiling panel, GPCR; type: cell-based; conditions: GPCR Targets
ADORA2A, sequence (P29274 whole entry, species assumed): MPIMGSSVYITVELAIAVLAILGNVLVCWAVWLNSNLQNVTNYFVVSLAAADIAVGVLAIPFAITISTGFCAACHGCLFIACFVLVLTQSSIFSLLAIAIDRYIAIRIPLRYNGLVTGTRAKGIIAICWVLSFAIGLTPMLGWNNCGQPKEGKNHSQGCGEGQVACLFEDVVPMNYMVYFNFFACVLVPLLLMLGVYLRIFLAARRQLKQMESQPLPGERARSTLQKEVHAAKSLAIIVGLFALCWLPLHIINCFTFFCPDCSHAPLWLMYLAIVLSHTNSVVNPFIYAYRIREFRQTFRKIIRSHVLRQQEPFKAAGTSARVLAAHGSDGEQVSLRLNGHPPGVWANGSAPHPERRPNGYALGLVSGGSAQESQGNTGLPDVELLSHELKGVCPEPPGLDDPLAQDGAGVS

PDE3A = PDE3A (Homo sapiens, UniProt Q14432); experiment: Mini-profiling panel, non-kinase enzyme; type: biochemical; conditions: Non-Kinase Enzymes; read-out: PDE3A Inhibitor IC50
GR = GR (Homo sapiens, UniProt P04150); experiment: Mini-profiling panel, nuclear hormone receptor; type: cell-based; conditions: NHR Targets
GR, sequence (P04150 whole entry): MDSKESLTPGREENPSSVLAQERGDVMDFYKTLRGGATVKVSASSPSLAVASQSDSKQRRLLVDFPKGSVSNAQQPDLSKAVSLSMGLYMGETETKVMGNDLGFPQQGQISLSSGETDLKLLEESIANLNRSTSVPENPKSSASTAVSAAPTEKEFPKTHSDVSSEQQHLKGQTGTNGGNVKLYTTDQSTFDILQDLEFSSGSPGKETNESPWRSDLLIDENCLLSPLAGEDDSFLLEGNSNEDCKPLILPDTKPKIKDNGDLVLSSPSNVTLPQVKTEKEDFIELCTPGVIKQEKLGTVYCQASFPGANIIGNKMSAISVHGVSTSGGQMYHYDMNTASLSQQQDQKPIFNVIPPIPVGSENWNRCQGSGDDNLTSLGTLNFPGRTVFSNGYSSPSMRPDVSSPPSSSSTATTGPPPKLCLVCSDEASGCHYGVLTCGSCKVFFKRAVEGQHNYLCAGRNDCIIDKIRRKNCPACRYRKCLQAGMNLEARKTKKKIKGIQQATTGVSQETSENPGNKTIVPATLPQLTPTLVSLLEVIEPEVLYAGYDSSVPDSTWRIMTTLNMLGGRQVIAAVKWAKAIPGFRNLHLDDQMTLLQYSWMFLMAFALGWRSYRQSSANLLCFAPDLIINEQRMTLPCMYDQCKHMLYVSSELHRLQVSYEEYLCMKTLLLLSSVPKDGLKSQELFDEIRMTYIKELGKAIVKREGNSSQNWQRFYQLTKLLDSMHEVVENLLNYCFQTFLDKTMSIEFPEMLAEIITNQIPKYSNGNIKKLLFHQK

INSR = INSR (Homo sapiens, UniProt P06213); experiment: Mini-profiling panel, kinase; type: biochemical; conditions: Kinases; read-out: INSR Inhibitor IC50
HRH1 = HRH1 (Homo sapiens, UniProt P35367); experiment: Mini-profiling panel, GPCR; type: cell-based; conditions: GPCR Targets
HRH1, sequence (P35367 whole entry, species assumed): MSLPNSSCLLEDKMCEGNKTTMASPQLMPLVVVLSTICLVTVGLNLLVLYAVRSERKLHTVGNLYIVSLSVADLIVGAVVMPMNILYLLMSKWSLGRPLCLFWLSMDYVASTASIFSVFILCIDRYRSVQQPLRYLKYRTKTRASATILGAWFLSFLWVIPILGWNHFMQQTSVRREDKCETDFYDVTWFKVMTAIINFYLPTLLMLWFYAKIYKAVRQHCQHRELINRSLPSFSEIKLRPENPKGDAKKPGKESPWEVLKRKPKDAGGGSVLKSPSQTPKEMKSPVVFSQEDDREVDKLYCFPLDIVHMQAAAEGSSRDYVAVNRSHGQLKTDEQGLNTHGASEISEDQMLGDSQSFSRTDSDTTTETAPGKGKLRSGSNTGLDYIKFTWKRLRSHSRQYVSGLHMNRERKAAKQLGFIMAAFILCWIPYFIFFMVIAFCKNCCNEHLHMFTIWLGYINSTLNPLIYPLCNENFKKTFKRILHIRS

human UGT1A1 = human UGT1A1 (Homo sapiens, UniProt P22309); experiment: UGT1A1 biochemical assay
human UGT1A1, sequence (P22309 26-533): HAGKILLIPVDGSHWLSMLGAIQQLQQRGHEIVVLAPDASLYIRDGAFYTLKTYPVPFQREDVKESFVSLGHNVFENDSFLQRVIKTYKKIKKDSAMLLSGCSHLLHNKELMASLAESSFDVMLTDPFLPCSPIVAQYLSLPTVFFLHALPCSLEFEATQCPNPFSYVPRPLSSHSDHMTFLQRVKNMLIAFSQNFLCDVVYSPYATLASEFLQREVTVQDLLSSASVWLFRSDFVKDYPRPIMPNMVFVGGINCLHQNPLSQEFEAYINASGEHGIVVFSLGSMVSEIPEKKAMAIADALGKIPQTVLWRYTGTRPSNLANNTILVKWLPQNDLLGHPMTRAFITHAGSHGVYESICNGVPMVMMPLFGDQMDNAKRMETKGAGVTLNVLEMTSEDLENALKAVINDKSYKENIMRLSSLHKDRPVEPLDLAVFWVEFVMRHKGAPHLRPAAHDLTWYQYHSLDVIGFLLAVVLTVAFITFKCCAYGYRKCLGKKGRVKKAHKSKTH

[3] = Plasma bilirubin in mice after oral treatment; type: in vivo; conditions: SCR-7952 1.0 mg/kg, 14 days oral treatment, 2 h after final dose
ADRA1A = ADRA1A (Homo sapiens, UniProt P35348); experiment: Mini-profiling panel, GPCR; type: cell-based
ADRA1A, sequence (P35348 whole entry): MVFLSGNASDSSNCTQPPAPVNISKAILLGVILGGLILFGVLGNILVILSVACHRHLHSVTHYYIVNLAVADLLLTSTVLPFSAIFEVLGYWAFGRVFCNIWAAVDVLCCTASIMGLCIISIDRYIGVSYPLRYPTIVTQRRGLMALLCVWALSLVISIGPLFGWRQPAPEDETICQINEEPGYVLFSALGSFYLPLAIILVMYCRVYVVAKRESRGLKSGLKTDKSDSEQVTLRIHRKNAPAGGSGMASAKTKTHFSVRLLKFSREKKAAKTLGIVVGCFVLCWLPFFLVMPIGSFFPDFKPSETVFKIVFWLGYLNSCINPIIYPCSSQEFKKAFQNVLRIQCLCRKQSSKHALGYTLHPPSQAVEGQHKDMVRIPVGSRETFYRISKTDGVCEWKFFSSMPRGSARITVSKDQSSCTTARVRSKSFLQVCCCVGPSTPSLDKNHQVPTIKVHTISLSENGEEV
Experimental: as §1

HTR1B = HTR1B (Homo sapiens, UniProt P28222); experiment: Mini-profiling panel, GPCR; type: cell-based
HTR1B, sequence (P28222 whole entry, species assumed): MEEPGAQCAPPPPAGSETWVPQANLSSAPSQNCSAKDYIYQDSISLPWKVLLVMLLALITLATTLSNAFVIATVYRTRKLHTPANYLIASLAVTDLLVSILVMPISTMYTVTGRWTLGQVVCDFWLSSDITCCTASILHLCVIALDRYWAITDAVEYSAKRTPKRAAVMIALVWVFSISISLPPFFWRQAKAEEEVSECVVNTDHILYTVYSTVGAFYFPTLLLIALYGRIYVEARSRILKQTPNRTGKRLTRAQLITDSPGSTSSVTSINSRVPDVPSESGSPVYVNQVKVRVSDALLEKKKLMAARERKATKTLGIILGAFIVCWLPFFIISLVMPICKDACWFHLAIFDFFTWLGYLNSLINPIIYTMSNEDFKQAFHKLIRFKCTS
Experimental: as §1

CCKAR = CCKAR (Homo sapiens, UniProt P32238); experiment: Mini-profiling panel, GPCR; type: cell-based; conditions: GPCR Targets
CCKAR, sequence (P32238 whole entry, species assumed): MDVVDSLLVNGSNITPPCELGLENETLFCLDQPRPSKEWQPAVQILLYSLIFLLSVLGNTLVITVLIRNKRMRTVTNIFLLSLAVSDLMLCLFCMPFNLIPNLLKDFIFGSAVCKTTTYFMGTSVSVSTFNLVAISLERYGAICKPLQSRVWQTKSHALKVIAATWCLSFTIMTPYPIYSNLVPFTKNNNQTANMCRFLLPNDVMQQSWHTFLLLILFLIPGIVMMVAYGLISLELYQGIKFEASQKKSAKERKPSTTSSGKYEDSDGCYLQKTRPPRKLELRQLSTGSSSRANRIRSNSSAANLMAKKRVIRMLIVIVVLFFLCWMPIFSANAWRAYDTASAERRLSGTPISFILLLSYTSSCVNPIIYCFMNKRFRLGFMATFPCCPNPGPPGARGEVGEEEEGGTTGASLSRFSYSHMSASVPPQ

AVPR1A = AVPR1A (Homo sapiens, UniProt P37288); experiment: Mini-profiling panel, GPCR; type: cell-based; conditions: GPCR Targets
AVPR1A, sequence (P37288 whole entry, species assumed): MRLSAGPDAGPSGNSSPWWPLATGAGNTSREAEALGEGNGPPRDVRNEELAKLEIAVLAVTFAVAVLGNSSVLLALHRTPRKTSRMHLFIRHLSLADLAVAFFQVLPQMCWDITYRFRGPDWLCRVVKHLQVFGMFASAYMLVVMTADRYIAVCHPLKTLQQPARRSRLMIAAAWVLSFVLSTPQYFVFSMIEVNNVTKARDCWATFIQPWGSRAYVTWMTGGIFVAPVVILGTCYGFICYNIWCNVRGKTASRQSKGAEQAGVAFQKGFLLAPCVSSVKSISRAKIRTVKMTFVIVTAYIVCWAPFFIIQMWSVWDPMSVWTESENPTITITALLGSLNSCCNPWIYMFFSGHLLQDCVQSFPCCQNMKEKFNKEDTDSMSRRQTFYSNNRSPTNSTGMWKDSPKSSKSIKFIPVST

AR, sequence (P10275 whole entry): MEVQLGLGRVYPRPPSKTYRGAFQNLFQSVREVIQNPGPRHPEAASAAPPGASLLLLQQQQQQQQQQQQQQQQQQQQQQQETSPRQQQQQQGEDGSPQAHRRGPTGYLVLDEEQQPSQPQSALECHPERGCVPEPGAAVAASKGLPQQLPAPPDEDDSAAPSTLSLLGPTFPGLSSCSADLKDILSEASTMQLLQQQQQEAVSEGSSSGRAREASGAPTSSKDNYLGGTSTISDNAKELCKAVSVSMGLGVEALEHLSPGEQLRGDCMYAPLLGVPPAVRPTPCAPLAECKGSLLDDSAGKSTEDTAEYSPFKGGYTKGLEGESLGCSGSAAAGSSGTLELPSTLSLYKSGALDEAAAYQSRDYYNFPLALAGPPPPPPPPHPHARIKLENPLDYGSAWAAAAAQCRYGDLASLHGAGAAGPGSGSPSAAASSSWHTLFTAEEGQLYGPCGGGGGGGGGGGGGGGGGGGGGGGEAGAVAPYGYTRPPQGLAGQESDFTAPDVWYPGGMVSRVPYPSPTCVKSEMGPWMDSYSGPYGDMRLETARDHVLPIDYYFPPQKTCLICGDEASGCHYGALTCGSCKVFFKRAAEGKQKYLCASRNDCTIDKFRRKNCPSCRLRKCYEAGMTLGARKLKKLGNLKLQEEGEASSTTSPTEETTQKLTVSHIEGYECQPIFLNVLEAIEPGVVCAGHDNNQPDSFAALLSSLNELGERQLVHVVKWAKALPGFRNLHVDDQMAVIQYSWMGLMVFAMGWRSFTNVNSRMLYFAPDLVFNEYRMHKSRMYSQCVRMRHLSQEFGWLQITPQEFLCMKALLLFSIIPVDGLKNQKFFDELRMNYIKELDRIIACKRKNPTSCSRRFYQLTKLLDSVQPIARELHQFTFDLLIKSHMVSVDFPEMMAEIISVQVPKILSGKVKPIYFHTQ

Work on `Cn1cnc2c(=O)n(-c3cccnc3C3CC3)c3cc(Cl)ccc3c21` [SCR‐7952, 7‐chloro‐5‐(2‐cyclopropylpyridin‐3‐yl)‐1‐methyl‐1,5‐dihydro‐4H‐imidazo[4,5‐c]quinolin‐4‐one] yielded an EC50 (AR) greater than 10 µM, an IC50 (AR) greater than 10 µM and an AUC(0-t) ([1]; Nu/Nu, mouse, oral, plasma, HCT116 MTAP−/− xenograft mice, read-out: AUC0-24h total) of 15800 ng·h/mL. For the same molecule, the AUC0-24h free drug ([1]; calculated) was 1442 ng·h/mL, the “expression of MAT2A protein” value (MAT2A protein expression) was “upregulated” and the IC50 (HCT116 MTAP−/− cells) was 0.0019 µM. For the same molecule, the “SDMA level (immunoblot)” value (SDMA) was “Significant dose‐dependent reduction”, the “interaction in combination with JNJ-64619178 on KP4” value [2] was “synergistic effect was also observed” and the EC50 (ADORA2A; read-out: ADORA2A Agonism EC50) was greater than 10 µM. The IC50 (ADORA2A; read-out: ADORA2A Antagonism IC50) was greater than 10 µM, the IC50 (PDE3A) was greater than 10 µM and the EC50 (GR; read-out: GR Agonism EC50) was greater than 10 µM. It also gave an IC50 (GR; read-out: GR Antagonism IC50) greater than 10 µM, an IC50 (INSR) greater than 10 µM and an EC50 (HRH1; read-out: HRH1 Agonism EC50) greater than 10 µM. The IC50 (HRH1; read-out: HRH1 Antagonism IC50) was greater than 10 µM, the IC50 (human UGT1A1) was greater than 100 µM and the “effect on mice plasma levels of bilirubin” value [3] was “no significant effect”. It also gave an EC50 (ADRA1A) greater than 10 µM, an IC50 (ADRA1A) greater than 10 µM and an EC50 (HTR1B) greater than 10 µM. For the same molecule, the IC50 (HTR1B) was greater than 10 µM, the EC50 (CCKAR; read-out: CCKAR Agonism EC50) was greater than 10 µM and the IC50 (CCKAR; read-out: CCKAR Antagonism IC50) was greater than 10 µM. For the same molecule, the EC50 (AVPR1A; read-out: AVPR1A Agonism EC50) was greater than 10 µM and the IC50 (AVPR1A; read-out: AVPR1A Antagonism IC50) was greater than 10 µM.
